Data from PubChem BioAssay (NCI).
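Tested at 5 concentrations; 48 h exposure; 96-well plates; endpoints linearly interpolated, else capped at highest concentration. At the GI50, growth is halved. TGI is the concentration that stops growth completely.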

Columns and labels:
Experiment in all cases: inhibition of tumour cell growth, NCI panel, 48 h
MALME-3M melanoma = test system: MALME-3M melanoma
HT29 colon = test system: HT29 colon
COLO 205 colon = test system: COLO 205 colon
M14 melanoma = test system: M14 melanoma
CCRF-CEM leukemia = test system: CCRF-CEM leukemia
RXF 393 renal = test system: RXF 393 renal
HCC-2998 colon = test system: HCC-2998 colon
NCI-H226 lung = test system: NCI-H226 lung
786-0 renal = test system: 786-0 renal
ACHN renal = test system: ACHN renal

Row | SMILES | GI50 (MALME-3M melanoma) | TGI (MALME-3M melanoma) | GI50 (HT29 colon) | TGI (HT29 colon) | GI50 (COLO 205 colon) | TGI (COLO 205 colon) | GI50 (M14 melanoma) | TGI (M14 melanoma) | GI50 (CCRF-CEM leukemia) | TGI (CCRF-CEM leukemia) | GI50 (RXF 393 renal) | TGI (RXF 393 renal) | GI50 (HCC-2998 colon) | TGI (HCC-2998 colon) | GI50 (NCI-H226 lung) | TGI (NCI-H226 lung) | GI50 (786-0 renal) | TGI (786-0 renal) | GI50 (ACHN renal) | TGI (ACHN renal)
1 | COP(=O)(OC)C(NC(c1ccccc1)c1ccccc1)c1ccc2c(c1)OCO2 (stereo not given) | 27.4 µM | 58.9 µM | 19.9 µM | 51.5 µM | 52.2 µM | > 100 µM | 23.1 µM | 61.3 µM | 2.26 µM | 29.7 µM | 23 µM | 50.1 µM | 33.5 µM | > 100 µM | 30.7 µM | 66.6 µM | 29.5 µM | 74.9 µM | 29.1 µM | > 100 µM
2 | c1ccc(Cc2nc3ccc(Nc4ncnc5ccccc45)cc3[nH]2)cc1 | > 25 µM | > 25 µM | 9.07 µM | > 25 µM | > 25 µM | > 25 µM | > 25 µM | > 25 µM | > 25 µM | > 25 µM | > 25 µM | > 25 µM | > 25 µM | > 25 µM | > 25 µM | > 25 µM | > 25 µM | > 25 µM | 14.8 µM | > 25 µM
3 | COc1cc2oc(=O)ccc2cc1C1OC(=O)C2OC21C (stereo not given) |  | > 100 µM |  | > 100 µM |  | > 100 µM |  | > 100 µM |  | > 100 µM |  | > 100 µM |  | > 100 µM |  | > 100 µM |  | > 100 µM |  | > 100 µM
4 | COC(=O)C(CCS(=O)(=O)CC(=O)C(=O)Nc1cccc(C(C)=O)c1)C(=O)OC |  | > 100 µM |  | > 100 µM |  | > 94.2 µM |  | > 100 µM |  | > 65.5 µM |  | > 100 µM |  | > 100 µM |  | > 100 µM |  | > 100 µM |  | > 100 µM
5 | C[C@@H]1C=C(CCCCCCCCCCC[C@H](O)[C@@H]2CCC(=O)O2)C(=O)O1 | 19.1 µM | 46.6 µM | 42.4 µM | > 100 µM | 19.1 µM | 40.6 µM | 25.1 µM | 87.9 µM | 17.6 µM | 47.4 µM | 47.2 µM | > 100 µM | 2.26 µM | 16.7 µM | 15.9 µM | 68.5 µM | 23.6 µM | > 100 µM | 17.9 µM | 49.3 µM
6 | C/C(O)=C(\N=O)C(=O)NCCc1ccccc1 |  | > 100 µM |  | > 100 µM |  | > 66.9 µM |  | > 100 µM |  | > 100 µM |  | > 100 µM |  | > 100 µM |  | > 100 µM |  | > 100 µM |  | > 100 µM
7 | CSc1nc2c(c(=O)[nH]1)N=C1c3ccccc3C(=O)C1C(c1ccc(F)cc1)N2 (stereo not given) | 19.6 µM | > 100 µM | 3.36 µM | 12.3 µM | 13 µM | > 100 µM | 6.29 µM | > 100 µM | 8.16 µM | > 100 µM | 14.5 µM | 36.6 µM | 12.2 µM | 30.5 µM | 15.3 µM | 45.6 µM | 12.4 µM | 27.3 µM | 11.6 µM | 36.4 µM
